Data on seven compounds can be found in the supplement of paper PMC11061612.

What all share (assay): Bliss excess, mean over the matrix (fraction); higher = more synergy
In test [1] the test system is SW837 (Colorectal Carcinoma). In outline: (§1)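 Bliss excess equals the observed combination effect minus the expected value EA + EB − EA·EB, where EA and EB are the effects of each agent alone. Combination Emax is the second-highest inhibition within the matrix. Inhibition was scaled from CellTiter-Glo 2.0 luminescence, with 0 set by vehicle wells and 1 by blank wells, after 72 hours of two-drug dosing of cells plated in 1536-well plates.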

For test [2], the system named is HDQ-P1 (Breast Carcinoma). Summed up:
as §1

Test [3] relates to CAMA-1 (Breast Carcinoma). Summed up:
as §1

In test [4] the test system is COLO-678 (Colorectal Carcinoma). In outline: as §1
For test [5], the system named is SW1417 (Colorectal Carcinoma). In outline:
as §1

The test system of test [6] is KM12 (Colorectal Carcinoma). In outline: as §1
Test [7] deals with SU-DHL-8 (B-Cell Non-Hodgkin's Lymphoma). Summed up: as §1
Test [8] concerns TOV-112D (Ovarian Carcinoma). In outline:
as §1

The next test deals with NCI-H2818 (Mesothelioma). In outline:
as §1

For the next test, the system named is MEL-JUSO (Melanoma). In outline: as §1
The subject of test [9] is KARPAS-45 (T-Lymphoblastic Leukemia). In outline:
as §1

The test system of another test is WIL2-NS (Non-Cancerous). In outline:
as §1

Another test has as its system U251 (Low Grade Glioma). In outline: as §1
The test system of the next test is ES1 (Ewing's Sarcoma). In outline: as §1
Test [10] relates to MS751 (Cervical Carcinoma). Summed up:
as §1

The test system of test [11] is BL-41 (Burkitt's Lymphoma). Summed up: as §1
For test [12], the system named is BFTC-905 (Bladder Carcinoma). Summed up:
as §1

For another test, the system named is CHP-212 (Neuroblastoma). In outline:
as §1

For test [13], the system named is L-540 (Hodgkin's Lymphoma). In outline:
as §1

Test [14] has as its system DND-41 (T-Lymphoblastic Leukemia). In outline:
as §1

Consider `CN(C)CCCOc1ccc(-c2ccc3ncc4c(c3c2)n(C2CCOCC2)c(=O)n4C)cn1` [AZD0156] + C=CCn1c(=O)c2cnc(Nc3ccc(N4CCN(C)CC4)cc3)nc2n1-c1cccc(C(C)(C)O)n1 [AZD1775] (first compound max 1 µM, partner max 1 µM), for which the Bliss excess in test [1] was -0.0431; in test [2], 0.0118; in test [3] it was -0.0726; in test [4], -0.0197; in [5] it was -0.0213; in test [6] it was -0.0223. The Bliss excess in test [7] was 0.0032; in test [8], 0.0039; in the test with NCI-H2818 (Mesothelioma), -0.0556; with MEL-JUSO (Melanoma) it was 0.0243; in test [9], -0.0182; in the test on WIL2-NS (Non-Cancerous), 0.0135. Moreover, the Bliss excess in the test with U251 (Low Grade Glioma) is 0.005; in the test on ES1 (Ewing's Sarcoma) it was -0.0018; in test [10] it was -0.0154; in test [11], 0.0047; in test [12] it was -0.0022; with CHP-212 (Neuroblastoma), -0.0165. The Bliss excess in [13] was 0.0604; in [14], -0.0029.

For `CN(C)CCCOc1ccc(-c2ccc3ncc4c(c3c2)n(C2CCOCC2)c(=O)n4C)cn1` [AZD0156] + CCN(CCO)CCCOc1ccc2c(Nc3cc(CC(=O)Nc4cccc(F)c4)[nH]n3)ncnc2c1 [AZD2811] (first compound max 1 µM, 7x7, partner max 1 µM), the Bliss excess in test [1] is -0.0263; in test [2] it was -0.0634; in test [3] it was -0.0318; in test [4] it was -0.0179; in test [5], -0.0418; in test [6], -0.0163. Moreover, the Bliss excess was 0.0377 in test [7]; -0.0025 in [8]; -0.0491 in the test with NCI-H2818 (Mesothelioma); -0.0039 in the test on MEL-JUSO (Melanoma); -0.0515 in test [9]; -0.003 in the test with WIL2-NS (Non-Cancerous). Also, the Bliss excess in the test with U251 (Low Grade Glioma) was 0.0131; with ES1 (Ewing's Sarcoma) it was 0.148; in [10], -0.0235; in [11], 0.0177; in [12] it was 0.0116; in the test on CHP-212 (Neuroblastoma), -0.0254. In addition, the Bliss excess in test [13] is 0.0074; in [14], 0.0072.

Regarding `COc1nnc2ccc(N3CCC(c4ccc(OCCN5CCN(C)C(=O)[C@H]5C)cc4)CC3)nn12` [AZD5153] + CN(CC[C@H](CSC1=CC=CC=C1)NC2=C(C=C(C=C2)S(=O)(=O)NC(=O)C3=CC=C(C=C3)N4CCC(CC4)[C@H](C5=CC=CC=C5C6=CC=C(C=C6)Cl)O)S(=O)(=O)C(F)(F)F)CCO [AZD4320] (first compound max 1 µM, 7x7, partner max 1 µM), the Bliss excess in test [2] was 0.0844; in test [4], 0.0322; in test [6], 0.0033; in [7], -0.128; in test [8] it was 0.0022; with MEL-JUSO (Melanoma) it was 0.0122. The Bliss excess in test [9] was 0.0274; in the test on U251 (Low Grade Glioma) it was 0.0547; in test [10], 0.0372; in the test on CHP-212 (Neuroblastoma), -0.0243.

Take `Cc1c2c(nn1C)CSCc1cc(n(C)n1)CSc1cc(c3ccccc3c1)OCCCc1c(C(=O)O)n(C)c3c-2c(Cl)ccc13` [AZD5991] + CC1(C)CCC(CN2CCN(c3ccc(C(=O)NS(=O)(=O)c4ccc(NCC5CCOCC5)c([N+](=O)[O-])c4)c(Oc4cnc5[nH]ccc5c4)c3)CC2)=C(c2ccc(Cl)cc2)C1 [Venetoclax] (first compound max 1 µM, 7x7, partner max 1 µM): the Bliss excess in test [1] is -0.0169; in [2], -0.0129; in test [3], 0.0985; in test [5] it was -0.0294; in test [6] it was 0.0015; in [7] it was 0.0491. The Bliss excess is 0.0582 in [8]; -0.0489 in the test with NCI-H2818 (Mesothelioma); -0.0297 in the test with MEL-JUSO (Melanoma); 0.141 in test [9]; -0.0302 in the test on WIL2-NS (Non-Cancerous); -0.0068 in the test with U251 (Low Grade Glioma). The Bliss excess in the test with ES1 (Ewing's Sarcoma) is 0.0817; in [10] it was 0.0031; in test [11], 0.0108; in [12], -0.0016; in the test on CHP-212 (Neuroblastoma), -0.0416; in [13] it was 0.0902. Moreover, the Bliss excess in [14] is 0.044.

As to `CC(=O)c1c(C)c2cnc(Nc3ccc(N4CCNCC4)cn3)nc2n(C2CCCC2)c1=O` [Palbociclib] + CN(CC[C@H](CSC1=CC=CC=C1)NC2=C(C=C(C=C2)S(=O)(=O)NC(=O)C3=CC=C(C=C3)N4CCC(CC4)[C@H](C5=CC=CC=C5C6=CC=C(C=C6)Cl)O)S(=O)(=O)C(F)(F)F)CCO [AZD4320] (first compound max 10 µM, 7x7, partner max 1 µM), the Bliss excess was -0.0735 in test [2]; -0.0747 in [4]; -0.0377 in [6]; -0.106 in test [7]; -0.0002 in [8]; -0.099 in the test with MEL-JUSO (Melanoma). The Bliss excess in test [9] was -0.0035; with U251 (Low Grade Glioma), -0.0989; in test [10], -0.0552; in the test with CHP-212 (Neuroblastoma), -0.0366.

Take `CCc1c2c(nc3ccc(O)cc13)-c1cc3c(c(=O)n1C2)COC(=O)[C@]3(O)CC` [SN-38] + O=C(c1cc(Cc2n[nH]c(=O)c3ccccc23)ccc1F)N1CCN(C(=O)C2CC2)CC1 [Olaparib] (first compound max 0.3 µM, 7x7, partner max 10 µM): the Bliss excess is 0.0302 in test [1]; 0.025 in test [2]; 0.0287 in test [3]; 0.0487 in test [4]; 0.0174 in [5]; -0.0102 in test [6]. The Bliss excess in test [8] was 0.0453; in the test on NCI-H2818 (Mesothelioma), 0.0548; in the test on WIL2-NS (Non-Cancerous) it was 0.0736; with ES1 (Ewing's Sarcoma), 0.0779; in [10], 0.053; in test [11] it was 0.0462. The Bliss excess was found to be 0.0451 in [12], 0.0196 in test [13] and 0.0343 in test [14].

For the compound `C[C@@H](c1ccc2nccn2c1)n1nnc2ncc(-c3cnn(C)c3)nc21` [Savolitinib] + CN(CC[C@H](CSC1=CC=CC=C1)NC2=C(C=C(C=C2)S(=O)(=O)NC(=O)C3=CC=C(C=C3)N4CCC(CC4)[C@H](C5=CC=CC=C5C6=CC=C(C=C6)Cl)O)S(=O)(=O)C(F)(F)F)CCO [AZD4320] (first compound max 1 µM, 7x7, partner max 1 µM), the Bliss excess in [2] was -0.0432; in test [4], -0.0766; in test [6] it was -0.0156; in test [7], 0.0282; in [8], -0.0414; in the test on MEL-JUSO (Melanoma), -0.0487. Besides, the Bliss excess is -0.0289 in test [9], -0.0546 with U251 (Low Grade Glioma), 0.0315 in test [10] and -0.0613 with CHP-212 (Neuroblastoma).
